Measured values: paper PMC5386545, “Madecassic acid, the contributor to the anti-colitis effect of madecassoside, enhances the shift of Th17 toward Treg cells via the PPARγ/AMPK/ACC1 pathway” (Cell Death & Disease, 2017)

Assays:
PPARγ [1] = biological target: T1, PPARγ (Homo sapiens, UniProt P37231); experiment: LanthaScreen TR-FRET competitive binding assay
T1 construct: gene PPARG; GST-fused human PPARγ-LBD
T1 sequence (P37231 231-505 limits assumed): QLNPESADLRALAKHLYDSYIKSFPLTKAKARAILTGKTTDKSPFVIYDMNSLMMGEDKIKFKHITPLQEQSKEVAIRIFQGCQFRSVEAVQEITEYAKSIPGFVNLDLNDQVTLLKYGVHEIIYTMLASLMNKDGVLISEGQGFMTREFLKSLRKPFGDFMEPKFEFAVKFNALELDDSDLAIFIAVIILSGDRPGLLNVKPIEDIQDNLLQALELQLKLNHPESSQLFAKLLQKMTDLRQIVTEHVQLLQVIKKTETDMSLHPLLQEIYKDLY

PPARγ [2] = biological target: T1, PPARγ; experiment: LanthaScreen TR-FRET competitive binding assay (reference agonist; value not given)

SMILES	Ki (PPARγ [1])	LanthaScreen TR-FRET competitive binding assay (reference agonist); no value prin (PPARγ [2])
C[C@H]1[C@H](C)CC[C@]2(C(=O)O)CC[C@]3(C)C(=CC[C@@H]4[C@@]5(C)C[C@@H](O)[C@H](O)[C@@](C)(CO)[C@@H]5[C@H](O)C[C@]43C)[C@H]12 [madecassic acid]	1610 nM	–
CN(CCOc1ccc(CC2SC(=O)NC2=O)cc1)c1ccccn1 (centres unmarked) [rosiglitazone]	–	Madecassic acid or rosiglitazone was cultured with GST-fused human PPARγ-LBD, terbium-labeled anti-GST antibody and a fluorescently labeled PPAR ligand
